The values that follow come from patent US10028961B2, “Therapeutically active compounds and their methods of use” (AGIOS PHARMACEUTICALS, INC., priority 2013, dated 2018).

In experiment [1] the target is IDH1 wt/IDH1 R132H heterodimer (Homo sapiens (Human), UniProt O75874, R132H). Nature of the experiment: In vitro assay for IDH1m R132H inhibitors, IDH1 wt/IDH1 R132H heterodimer, NADPH depletion (diaphorase/resazurin). Type of experiment: biochemical. The method in brief:
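Read-out is NADPH left after α-KG reduction to 2-HG, measured via resorufin fluorescence after 5 min diaphorase/resazurin step at 25° C. Enzyme is sf9-expressed IDH1wt-his/IDH1R132H-flag heterodimer, pre-incubated 1 hr at room temperature with compound and cofactor. IC50s from DMSO stocks diluted 1:50.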
Background: Alamar Blue is a resazurin reagent that responds to reducing activity.

The target of experiment [2] is IDH2 R140Q (Homo sapiens (Human), UniProt P48735, R140Q). Description: In vitro assay for IDH2m R140Q inhibitors, cofactor depletion assay. The experiment is classed as biochemical. The following applies: IDH2 R140Q enzyme. Put shortly: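 Remaining cofactor measured fluorimetrically: diaphorase/resazurin Stop Mix […], halting the reaction. Before that, mutant enzyme and compound sat 1 h at RT, then substrate mix (4 μM NADPH, 1.6 mM α-KG) was added for 16 h at RT.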
IDH2 R140Q, sequence (P48735 40-452 R140Q): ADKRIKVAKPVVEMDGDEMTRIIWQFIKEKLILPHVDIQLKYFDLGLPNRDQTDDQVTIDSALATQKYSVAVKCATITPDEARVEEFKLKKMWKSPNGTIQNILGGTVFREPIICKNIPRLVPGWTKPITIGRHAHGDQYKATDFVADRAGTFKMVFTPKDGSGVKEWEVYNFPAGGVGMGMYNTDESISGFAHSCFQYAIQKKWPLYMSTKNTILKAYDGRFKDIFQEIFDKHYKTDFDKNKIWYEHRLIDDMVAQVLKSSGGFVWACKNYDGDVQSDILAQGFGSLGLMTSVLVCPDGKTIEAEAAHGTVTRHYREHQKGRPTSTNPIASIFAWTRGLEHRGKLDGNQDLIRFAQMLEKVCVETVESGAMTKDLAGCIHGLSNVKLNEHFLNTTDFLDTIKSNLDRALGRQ

Experiment [3] relates to Neurosphere cells (TS603). Description: Cellular assay for IDH1m R132H inhibitors, 2-HG by LC-MS in neurosphere cells (TS603). Type of experiment: cell-based. As to conditions: 2-HG in media at 48 hours. Put shortly:
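TS603 neurosphere cells in NeuroCult medium were dosed with compound (0.25% DMSO final) at 37 C, 5% CO2. After 48 hours, medium 2-HG was measured by LC-MS. At 72 hours, viability was read by CellTiter-Glo luminescence.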

Where [4] appears, read: IDH1 wt/R132H heterodimer, NADPH/NADP, not saturated, read-out: IDH1 wt/R132H NADPH/NADP IC50 not saturated.
Setting [5] is: IDH1 wt/IDH1 R132H heterodimer, 300 μM NADP (saturated), read-out: IDH1 wt/R132H NADPH/NADP IC50 saturated.

Where two headings read alike, the source gives them in different places.

IDH1 wt/IDH1 R132H heterodimer, sequence (O75874 whole entry R132H): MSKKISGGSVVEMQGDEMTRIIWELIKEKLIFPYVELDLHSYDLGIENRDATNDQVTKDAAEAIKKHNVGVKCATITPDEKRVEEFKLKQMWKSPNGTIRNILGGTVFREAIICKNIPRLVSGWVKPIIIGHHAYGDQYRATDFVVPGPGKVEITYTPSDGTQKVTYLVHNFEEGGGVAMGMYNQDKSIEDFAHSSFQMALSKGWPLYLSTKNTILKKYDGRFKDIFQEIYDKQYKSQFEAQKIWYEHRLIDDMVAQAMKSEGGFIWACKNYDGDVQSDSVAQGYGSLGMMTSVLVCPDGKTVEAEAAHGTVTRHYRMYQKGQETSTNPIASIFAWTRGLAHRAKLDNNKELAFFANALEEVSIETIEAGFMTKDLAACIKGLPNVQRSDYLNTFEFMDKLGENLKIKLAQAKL
IDH1 wt/IDH1 R132H heterodimer, sequence (O75874 whole entry, stated change not applied): as the sequence (O75874 whole entry R132H) above, with H132R counted along it

Regarding `CC(F)(F)c1cccc(-c2nc(NC3CCC(F)(F)C3)nc(NC3CCC(F)(F)C3)n2)n1` (stereo not drawn) [Compound 105], the IC50 in experiment [1] (setting [4]), in experiment [2] and in experiment [3] was < 0.05 µM in each case.
As for `N#Cc1cc(Nc2nc(NC3CCC(F)(F)C3)nc(-c3cccc(C(F)(F)F)n3)n2)ccn1` (stereo not drawn) [Compound 181], the IC50 in experiment [1] (setting [4]), in experiment [2] and in experiment [3] was < 0.05 µM each time.
Consider `N#Cc1cc(F)cc(Nc2nc(NC3CCC(F)(F)CC3)nc(-c3cccc(C(F)(F)F)n3)n2)c1` [Compound 164], for which the IC50 in experiment [1] (setting [4]), in experiment [2] and in experiment [3] was < 0.05 µM throughout.
In the case of `FC1(F)CCC(Nc2nc(NC3CCC(F)(F)CC3)nc(-c3cncc(Cl)n3)n2)CC1` [Compound 147], the IC50 in experiment [1] (setting [4]), in experiment [2] and in experiment [3] was < 0.05 µM in each case.
For `FC(F)c1cccc(-c2nc(NC3CCC(F)(F)CC3)nc(NC3CCC(F)(F)CC3)n2)n1` [Compound 224], the IC50 in experiment [1] (setting [4]), in experiment [2] and in experiment [3] was < 0.05 µM in each case.
Take `FC(F)c1cccc(-c2nc(NC3CC(F)(F)C3)nc(NC3CC(F)(F)C3)n2)n1` [Compound 145]: the IC50 in experiment [1] (setting [4]), in experiment [2] and in experiment [3] was < 0.05 µM throughout.
For the molecule `FC1(F)CCC(Nc2nc(NC3CCC(F)(F)CC3)nc(-c3nccc(C(F)(F)F)n3)n2)CC1` [Compound 293], the IC50 was 0.1 to 1 µM in experiment [1] (setting [4]), 0.05 to 0.1 µM in experiment [2] and ≥ 1 µM in experiment [3].
On to `FC1(F)CCC(Nc2nc(NC3CCC(F)(F)C3)nc(-c3cccc(Cl)n3)n2)C1` (stereo not drawn) [Compound 113], for which the IC50 in experiment [1] (setting [4]), in experiment [2] and in experiment [3] was < 0.05 µM throughout.
Regarding `CC(CC#N)Nc1nc(N[C@H](C)C2CC2)nc(-c2cccc(C(F)(F)F)n2)n1` (stereo partly drawn) [Compound 214], the IC50 in experiment [1] (setting [4]), in experiment [2] and in experiment [3] was < 0.05 µM throughout.
In the case of `FC1(F)CCC(Nc2nc(NC3Cc4ccccc4C3)nc(-c3cccc(C(F)(F)F)n3)n2)C1` (stereo not drawn) [Compound 152], the IC50 in experiment [1] (setting [4]), in experiment [2] and in experiment [3] was < 0.05 µM in each case.
For the molecule `FC1(F)CC(Nc2nc(NC3CC(F)(F)C3)nc(-c3nccc(C(F)(F)F)n3)n2)C1` [Compound 256], the IC50 is 0.1 to 1 µM in experiment [1] (setting [4]), < 0.05 µM in experiment [2] and < 0.05 µM in experiment [3].
With `CC(CC#N)Nc1nc(Nc2ccnc(C(C)(F)F)c2)nc(-c2cccc(C(F)(F)F)n2)n1` (stereo not drawn) [Compound 250], the IC50 is 0.05 to 0.1 µM in experiment [1] (setting [4]), 0.1 to 1 µM in experiment [2] and < 0.05 µM in experiment [3].
For `FC1(F)CCC(Nc2nc(Nc3ccnc(C(F)(F)F)c3)nc(-c3cccc(C(F)(F)F)n3)n2)CC1` [Compound 192], in that order: < 0.05 µM, < 0.05 µM and < 0.05 µM.
For the molecule `FC1(F)CC(Nc2nc(NC3CC(F)(F)C3)nc(-c3nc(C(F)(F)F)cs3)n2)C1` [Compound 128], the IC50 in experiment [1] (setting [4]), in experiment [2] and in experiment [3] was < 0.05 µM in each case.
In the case of `C[C@@H](Nc1nc(N[C@H](C)C2CC2)nc(-n2ccc(C(F)(F)F)n2)n1)C1CC1` [Compound 121], the IC50 in experiment [1] (setting [4]), in experiment [2] and in experiment [3] was < 0.05 µM each time.
With `C[C@@H](Nc1nc(N[C@H](C)C2CC2)nc(-c2nccc(C(F)(F)F)n2)n1)C1CC1` [Compound 268], the IC50 in experiment [1] (setting [4]) is 0.1 to 1 µM; in experiment [2] it was 0.05 to 0.1 µM; in experiment [3] it was < 0.05 µM.
On to `FC1(F)CCC(Nc2nc(NC3Cc4ccc(Cl)cc4C3)nc(-c3cccc(C(F)(F)F)n3)n2)C1` (stereo not drawn) [Compound 182], for which the IC50 in experiment [1] (setting [4]), in experiment [2] and in experiment [3] was < 0.05 µM in each case.
For `N#CC1(c2cc(Nc3nc(NCC(F)(F)F)nc(-c4cccc(C(F)(F)F)n4)n3)ccn2)CC1` [Compound 226], the IC50 in experiment [1] (setting [4]), in experiment [2] and in experiment [3] was < 0.05 µM throughout.
Regarding `FC1(F)CC(Nc2nc(NC3CC(F)(F)C3)nc(-c3cncc(C(F)(F)F)n3)n2)C1` [Compound 161], the IC50 in experiment [1] (setting [4]), in experiment [2] and in experiment [3] was < 0.05 µM throughout.
In the case of `C[C@@H](Nc1nc(NC(C2CC2)C2CC2)nc(-c2cccc(C(F)(F)F)n2)n1)C1CC1` [Compound 193], the IC50 in experiment [1] (setting [4]), in experiment [2] and in experiment [3] was < 0.05 µM each time.
For the molecule `CC(C)(C)Nc1nc(Nc2ccnc(C#N)c2)nc(-c2cccc(C(F)(F)F)n2)n1` [Compound 162], the IC50 in experiment [1] (setting [4]), in experiment [2] and in experiment [3] was < 0.05 µM throughout.
Turning to `FC1(F)CCC(Nc2nc(NC3CCC(F)(F)CC3)nc(-n3ccc(C(F)(F)F)n3)n2)CC1` [Compound 176], the IC50 in experiment [1] (setting [4]), in experiment [2] and in experiment [3] was < 0.05 µM in each case.
As for `N#CC1(c2cc(Nc3nc(NC4CCC(F)(F)C4)nc(-c4cccc(Cl)n4)n3)ccn2)CC1` (stereo not drawn) [Compound 127], the IC50 in experiment [1] (setting [4]), in experiment [2] and in experiment [3] was < 0.05 µM each time.
As for `CC(C#N)Nc1nc(Nc2ccnc(C(C)(F)F)c2)nc(-c2cccc(C(F)(F)F)n2)n1` (stereo not drawn) [Compound 253], the results for the IC50 in experiment [1] (setting [4]), in experiment [2] and in experiment [3] were 0.05 to 0.1 µM, < 0.05 µM and < 0.05 µM, respectively.
For `N#CC1(c2cc(Nc3nc(NC4CCC(F)(F)C4)nc(-c4nccc(C(F)(F)F)n4)n3)ccn2)CC1` (stereo not drawn) [Compound 261], the IC50 was 0.1 to 1 µM in experiment [1] (setting [4]), < 0.05 µM in experiment [2] and 0.05 to 0.1 µM in experiment [3].
Regarding `FC1(F)CC[C@H](Nc2nc(Nc3ccnc(C(F)(F)F)c3)nc(-c3cncc(C(F)(F)F)n3)n2)C1` [Compound 391], the IC50 in experiment [1] (setting [5]), in experiment [2] and in experiment [3] was < 0.05 µM each time.
For `N#CC1(c2cc(Nc3nc(NC4CC5(C4)CC(F)(F)C5)nc(-c4cccc(C(F)(F)F)n4)n3)ccn2)CC1` [Compound 229], the IC50 in experiment [1] (setting [4]), in experiment [2] and in experiment [3] was < 0.05 µM in each case.
For `FC1(F)CCC(Nc2nc(Nc3ccnc(C(F)(F)F)c3)nc(-c3cccc(C(F)(F)F)n3)n2)C1` (stereo not drawn) [Compound 178], the IC50 in experiment [1] (setting [4]), in experiment [2] and in experiment [3] was < 0.05 µM throughout.
On to `CCC(Nc1nc(NC(CC)C2CC2)nc(-c2cccc(Cl)n2)n1)C1CC1` (stereo not drawn) [Compound 110], for which the IC50 in experiment [1] (setting [4]), in experiment [2] and in experiment [3] was < 0.05 µM in each case.
For `N#CC1(c2cc(Nc3nc(NC4CCC(F)(F)C4)nc(-c4cccc(C(F)(F)F)n4)n3)ccn2)CC1` (stereo not drawn) [Compound 151], the IC50 in experiment [1] (setting [4]), in experiment [2] and in experiment [3] was < 0.05 µM in each case.
Consider `FC1(F)CCC(Nc2nc(Nc3ccnc(C(F)(F)F)c3)nc(-c3cccc(Cl)n3)n2)C1` (stereo not drawn) [Compound 115], for which the IC50 in experiment [1] (setting [4]), in experiment [2] and in experiment [3] was < 0.05 µM each time.
With `CC(C)(C#N)Nc1nc(Nc2ccnc(C(C)(F)F)c2)nc(-c2cccc(C(F)(F)F)n2)n1` [Compound 247], the IC50 in experiment [1] (setting [4]) is 0.05 to 0.1 µM; in experiment [2], < 0.05 µM; in experiment [3], < 0.05 µM.
`FC1(F)CCC(Nc2nc(Nc3ccnc(C(F)(F)F)c3)nc(-c3cncc(C(F)(F)F)n3)n2)CC1` [Compound 389]: the IC50 in experiment [1] (setting [5]), in experiment [2] and in experiment [3] was < 0.05 µM in each case.
